Measurements published in patent publication US20260356879A1, “CELASTROL DERIVATIVES” (Celloram Inc., priority 2022, published 2026).
Entries after “also recorded” stand apart in the source; their conditions may differ.

Assays:
NLRP3 inflammasome [1] = test: Secreted IL-1β in conditioned media of BMDC (ELISA), LPS+ATP or LPS+Nigericin; format: cell-based; conditions: 63-500 nM, FIG. 2B
Method: FIG. 2A depicts western blot images showing the relative NLRP3 inflammasome activity of the compounds 22 (CLM-022) and 1 (CLM-001) by detecting the level of cellular ASC complex and the mature form of IL-1β (15 kDa) in a conditioned media of BMDCs treated with LPS (100 ng/ml) for 3 hours and then the compound at 50 nM, 100 nM, and 500 nM concentration for 30 min, followed by ATP or Nigericin. ASC monomer and β-Actin proteins were used as controls. FIG. 2B depict plots of results showing secreted IL-1β levels measured by ELISA using conditioned media of BMDC treated with the compound 22 or compound 1 at 63 nM, 125 nM, 250 nM, and 500 nM, under NLRP3 inflammasome activation induced either by LPS+ATP or LPS+Nigericin. FIG. 2C depict plots of results showing secreted TNF-α levels measured by ELISA using conditioned media of BMDC treated with the compound 22 or compound 1 at 63 nM, 125 nM, 250 nM, and 500 nM, under NLRP3 inflammasome activation induced either by LPS+ATP or LPS+Nigericin.
1. […] After 30 minutes Nigericin (10 μM) or ATP (5 mM) was added (Signal 2) and the level of NLRP3-dependent inflammasome activity was determined by western blotting the treated cells with ASC complex (>48 kDa). […]

NLRP3 inflammasome [2] = test: ASC complex formation in THP-1 cells (western blot), LPS+Nigericin; format: cell-based, human; conditions: THP-1, 50 nM and 100 nM, FIG. 3A
Method: This example illustrates a study of the anti-inflammatory potential of an exemplary celastrol derivative of the present disclosure (compound 22) using an NLRP3 inflammasome assay in THP-1, a human monocytic cell line, activated with LPS+Nigericin in the presence of compound 22 or the known NLRP3 inhibitor compound, MCC950 (CAS 256373-96-3), as a benchmark molecule.
Human THP-1 cells were treated with LPS+Nigericin as shown previously (FIG. 2) where increasing dose of compound 1, compound 22, or MCC950 were added as indicated.

TNF-α secretion [3] = test: TNF-α secretion in BMDMs, LPS + Nigericin; format: cell-based, mouse; conditions: FIG. 5B
Method: (§1) This example illustrates a comparative study of CLM-022 and MCC950 in inhibiting NLRP3 inflammasome activity in mouse and human macrophages.
Bone marrow-derived macrophages (BMDMs) were treated with LPS (100 ng/ml) for 3 hours to induce the expression of inflammatory genes, including TNF-α, NLRP3, and pro-IL-1β. Subsequently, the BMDMs were treated with CLM-022 or MCC950 in a dose range of 0-10 μM for 30 minutes. Then, to fully activate NLRP3-dependent inflammasome activity and cytokine secretion, Nigericin (10 μM) was added to the BMDMs for an additional 30 minutes.

TNF-α secretion [4] = test: TNF-α secretion in THP-1 macrophages, LPS + Nigericin; format: cell-based; conditions: human THP-1 macrophages, FIG. 5D
Method: as §1
To confirm the inhibitory effect of CLM-022 in human macrophages, THP-1 cells, a human leukemia monocytic cell line, were differentiated into macrophages using phorbol 12-myristate-13-acetate (PMA, 100 ng/ml) treatment for one day. The THP-1 macrophages were then treated with LPS (100 ng/ml) for 3 hours to induce the expression of inflammatory genes. Subsequently, the THP-1 cells were treated with CLM-022 or MCC950 in a dose range of 0-10 μM for 30 minutes. Then, to fully activate NLRP3-dependent inflammasome activity, Nigericin (10 μM) was added to the THP-1 cells for an additional 60 min.

NEK7 = biological target: T1, NEK7 (Homo sapiens, UniProt Q8TDX7); test: DARTS assay: protection of NEK7 from Pronase degradation in THP-1 lysates; format: binding; conditions: 10 μM, FIG. 6C
T1 construct: DARTS with Pronase, immunoblot
T1 sequence (Q8TDX7 whole entry): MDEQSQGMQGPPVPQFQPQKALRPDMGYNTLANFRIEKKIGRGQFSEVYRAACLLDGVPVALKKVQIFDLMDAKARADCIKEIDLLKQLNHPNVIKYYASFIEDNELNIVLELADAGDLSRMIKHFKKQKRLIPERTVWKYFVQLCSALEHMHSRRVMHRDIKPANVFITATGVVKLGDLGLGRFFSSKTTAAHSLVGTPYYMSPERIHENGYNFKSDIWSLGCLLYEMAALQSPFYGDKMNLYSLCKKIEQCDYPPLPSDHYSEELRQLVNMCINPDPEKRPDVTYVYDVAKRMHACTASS
Excerpt: The NLRP3 inflammasome is composed of a multi-protein complex and the exact molecular mode of NLRP3 activation remains unclear. Currently, there are no NLRP3 inflammasome inhibitors in the clinic, and it is important to identify the mechanism of action and molecular target of potential small molecules that interact with NLRP3. This example illustrates a study of the ability of CLM-022 to protect the NLRP3 molecule as determined using a drug affinity responsive target stability (DARTS) assay. DARTS assay is a robust method to identify small molecule target protein. In case of a drug-target interaction, the small molecule protects target protein from degradation by proteinase (Pronase) whereas free-proteins may be degraded very efficiently in the given condition.
The DARTS assay was performed using THP-1 lysates pretreated with LPS and Nigericin to induce activation of NLRP3 inflammasome. THP-1 cells (1×10^5/mL) were treated with LPS (100 ng/ml) for 3 hours, followed by 10 μM Nigericin for an additional 30 minutes. Pronase (50-500 ng/μg of protein) was added to the lysate with CLM-022 (10 μM) or MCC950 (10 μM) for the indicated time (10-15 min) at room temperature. The protein components of NLRP3 inflammasome were visualized using antibody recognizing NLRP3-Natch domain (FIG. 6A), NLRP-PYD domain (FIG. 6B), or NEK7 protein (FIG. 6C). […]

CC1=C(O)C(=O)C=C2C1=CC=C1[C@@]2(C)CC[C@@]2(C)[C@@H]3C[C@](C)(N(C)C(=O)C(=O)N(C)C)CC[C@]3(C)CC[C@]12C [Compound 22, N′-[(2R,4aS,6aR,6aS,14aS,14bR)-10-hydroxy-2,4a,6a,6a,9,14a-hexamethyl-11-oxo-1,3,4,5,6,13,14,14b-octahydropicen-2-yl]-N,N,N′-trimethyl-oxamide]
inhibition of IL-1β secretion (NLRP3 inflammasome [1]): more strongly inhibited IL-1β secretion induced by both LPS+ATP and LPS+Nigericin; also recorded: strongly inhibited IL-1β secretion via suppression of NLRP3 inflammasome
ASC complex formation (NLRP3 inflammasome [2]): strongly inhibited this ASC complex formation with an inhibitory capacity that was stronger than that observed for celastrol (compound 1) and MCC950
suppression of TNF-α secretion (TNF-α secretion [3]): neither CLM-022 nor MCC950 suppressed TNF-α secretion
inhibition of TNF-α secretion (TNF-α secretion [4]): but not TNF-α
protection of NEK7 from Pronase-induced degradation (NEK7): did not protect NEK7 from Pronase-induced degradation
